Data as given in patent US20250145652A1, “INORGANIC SALTS OF NICOTINAMIDE MONONUCLEOTIDE AS ANTI-AGING AGENTS” (Life Biosciences Inc., priority 2018, published 2025).

Tested on: COV434 cells
Test: NAD cell assay (NAD cycling method), cellular NAD+ levels
Type: cell-based, human
Settings: NAD levels in COV434 cells, 200 uM, 4 hr; for Fold increase compared to NMN: normalised to protein; for Fold Increase compared to NMN on a molar basis: mole per mole comparison of salt and parent
Procedure: NAD levels were assayed based on the NAD cycling method of Zhu and Rand, PLoS One (2012), herein incorporated by reference. COV434 cells were maintained in 6 well plates and treated with the indicated compounds at a concentration of 200 uM for 4 hr. Media was removed, plates were washed in cold PBS and cells were scraped down in NAD extraction buffer containing 10 mM nicotinamide, 50 mM Tris HCl, 0.1% Triton X-100. Cells were homogenised by sonication for 5 seconds, and samples were centrifuged at 7,000 g for 5 min at 4 degrees. Aliquots were taken for later protein assay, and samples were then passed through 10 kDa amicon filters at 14,000 g, 30 min at 4 degrees to remove proteins from the sample. Each sample was measured in technical triplicate, with 25 μL sample added to 100 μL ADH cycling mix (0.2 mg/ml alcohol dehydrogenase enzyme, 2% ethanol, 100 mM Tris pH 8.5). Samples were allowed to cycle for 10 min at room temperature, followed by 50 μL addition of an MTT/PMS solution (0.1 mM phenazine methosulfate, 0.8 mM 3-(4,5-Dimethylthiazol-2-yl)-2,5-diphenyltetrazolium bromide), 100 mM Tris-HCl pH 8.5). Plates were then incubated for 15 min and absorbance was measured at 570 nm. NAD concentrations were extrapolated from a standard curve, and normalised to protein concentrations determined by BCA protein assay.
The fold increase is obtained through a direct comparison on a mole per mole between the compared salt and its parent counterpart.

NC(=O)c1ccc[n+]([C@@H]2O[C@H](COP(=O)([O-])[O-])[C@@H](O)[C@H]2O)c1.[Na+] [Compound I-001, Sodium ((2R,3S,4R,5R)-5-(3-carbamoylpyridin-1-ium-1-yl)-3,4-dihydroxytetrahydrofuran-2-yl)methyl phosphate]
Fold increase compared to NMN: 1.7
Fold Increase compared to NMN on a molar basis: 1.78

NC(=O)c1ccc[n+]([C@@H]2O[C@H](COP(=O)([O-])O)[C@@H](O)[C@H]2O)c1 [NMN, nicotinamide mononucleotide]
Fold increase compared to NMN: 1.0
Fold Increase compared to NMN on a molar basis: 1.0
